From patent US20130209515A1, “ANTI-INFECTIVE AND IMMUNOMODULATORY COMPOUNDS” (priority 2005, published 2013)

System: mouse genes
Assay: Whole genome expression in blood of mice after 2AA (Affymetrix GeneChip)
Type: in vivo
Description: To identify how 2AA pre-exposure promotes host defense to better protect against P. aeruginosa infection, we carried out whole genome gene expression studies of mice for several experimental conditions using the mouse full-thickness skin thermal injury infection model, including naïve; BI alone; 2AA treatment alone; 2AA pretreatment plus BI. The mice were injected IP, as we were not yet aware of the improved benefit obtained with IV delivery. Whole blood was collected after 0, 6, 24, 96 and 192 hr post 2AA injection. Also, pretreated BI mice were exposed to 2AA at 1 and 4 days pre-BI, with blood samples collected 24 hr post-BI. The transcriptome profiles were then determined and compared, and genes with statistically significant differences in their expression levels between the samples were further analyzed by pair-wise comparison (see experimental design, section 2.2).
In experiments to determine if T-aminoacetophenone acts as an immunomodulator, eight 6-week old CD-1 male mice were treated intraperitonialy with 500 μl of a 20 mM solution of T-aminoacetophenone in 0.9% NaCl (aq). A control group of mice was administered only 0.9% NaCl. Blood was withdrawn from the mice at time points of 6 hours, 24 hours, 96 hours, and 192 hours, and RNA was extracted from each blood sample.
Mouse GeneChip™ arrays, manufactured by Affymetrix (Santa Clara, Calif.), were used to compare the profile of gene expression in the blood samples of mice. The biotin-labeled cRNA used to hybridize to the GeneChips was prepared from the RNA extracted from the blood samples according to the Affymetrix GeneChip Expression Analysis Technical Manual (Research Genetics, Huntsville, Ala.).
The expression profiles from treated and untreated mice were compared and an additional constraint of a minimum expression ratio of 1 was applied to control false positives to 5%. The gene list was clustered and the genes showing upregulation at any of the time points considered were selected. […] Most of the genes listed in the table function in immune response or host-pathogen interaction. The table includes several cytokines and their receptors, genes involved in immune cell proliferation, and calcium-binding proteins that have a role in downstream signaling.

[1] = 2AA pre-BI, blood 24 hr post-BI (FIG. 38)

## CC(=O)c1ccccc1N [2AA, 2′-aminoacetophenone]
[1]
  down-regulated genes in 2AA-treated BI samples: 23 genes
  up-regulated genes in 2AA-treated BI samples: do not identify any up-regulated
6 h after IP 2AA, blood
  Fold Change AF220015 Rpt-1; regulatory protein, T lymphocyte 1: 2.3 fold
  Fold Change AF237910 Membrane-spanning 4-domains, subfamily A: 2.8 fold
  Fold Change AI323359 Csfmr, colony stimulating factor IR, regulator of myeloid cell proliferation: 2.3 fold
  Fold Change AI462015 Nuclear factor of kappa light chain gene enhancer in B-cells inhibitor, alpha: 2.3 fold
  Fold Change AI648846 Solute carrier family 6: 10.1 fold
  Fold Change AV026617 FBJ osteosarcoma oncogene: 15.0 fold
  Fold Change AV229143 Interferon activated gene (202A): 21.2 fold
  Fold Change AV318494 Myeloid cell leukemia sequence 1: 1.8 fold
  Fold Change BB193024 Interferon-induced transmembrane protein-2: 5.0 fold
  Fold Change BB241535 Suppressor of cytokine signaling 3: 4.9 fold
  Fold Change BB769628 Colony stimulating factor 2 receptor, beta 1: 14.9 fold
  Fold Change BB784999 Triggering receptor expressed on myeloid cells 1: 11.6 fold
  Fold Change BB831725 Suppressor of cytokine signaling 3: 20.8 fold
  Fold Change BC003839 Myeloid cell leukemia sequence 1 (Mcl1): 1.5 fold
  Fold Change BC010291 Interferon-inducible protein (Cd225): 1.3 fold
  Fold Change BC011092 Chemokine (C-C) receptor 1: 1.2 fold
  Fold Change BC011437 IL-1β: 3.5 fold
  Fold Change BC012653 Chemokine (C-X3-C) receptor 1: 30.6 fold
  Fold Change BC021916 EMAPI, cytokine activity: 1.7 fold
  Fold Change BC022943 Lymphocyte cytosolic protein 1: 2.0 fold
  Fold Change BE285634 Interleukin-1 receptor accessory protein: 1.0 fold
  Fold Change NM_008039 Receptor activity [formyl peptide receptor, related sequence 2] (Fpr-rs2): 13.6 fold
  Fold Change NM_008677 p40phox; intracellular signaling cascade neutrophil cytosolic factor 4 (Ncf4): 1.1 fold
  Fold Change NM_008879 Pls2, L-fimbrin, calcium ion binding lymphocyte cytosolic proteing 1 (Lep 1): 20.4 fold
  Fold Change NM_009883 Nuclear factor induced by IL-6 (NF-IL6): 1.0 fold
  Fold Change NM_011087 Paired-Ig-like receptor A1 (Piral): 1.9 fold
  Fold Change NM_011313 Cacy; calcium binding protein A6 (calcyclin)cyclin-dependent protein kinase: 5.7 fold
  Fold Change NM_011315 Saa-3 lipid transported activity acute phase response: 4.7 fold
  Fold Change NM_011355 PU.1, transcription factor complex cell growth and/or maintenance: 17.0 fold
  Fold Change NM_011940 Interferon-activatable protein (Ifi202): 29.8 fold
  Fold Change NM_011999 DCIR; C-type (calcium dependent, carbohydrate recognition domain) lectin: 22.8 fold
  Fold Change NM_030691 Integral to membrane immunoglobulin superfamily, member 6 (Igsf6): 14.9 fold
  Fold Change NM_030694 Interferon-induced transmembrane protein-3: 4.7 fold
  Fold Change U05264 Glycoprotein 49B (Gp49b): 4.7 fold
  Fold Change U72644 Leukocyte specific transcript 1: 1.6 fold
  Fold Change X14607 Lipocalin 2: 13.9 fold
6 hours after 2′-aminoacetophenone
  additional genes upregulated (higher cutoff, Table 4): 10 genes
24 h after IP 2AA, blood
  Fold Change AF220015 Rpt-1; regulatory protein, T lymphocyte 1: 0.6 fold
  Fold Change AF237910 Membrane-spanning 4-domains, subfamily A: 0.5 fold
  Fold Change AI323359 Csfmr, colony stimulating factor IR, regulator of myeloid cell proliferation: 0.7 fold
  Fold Change AI462015 Nuclear factor of kappa light chain gene enhancer in B-cells inhibitor, alpha: 0.4 fold
  Fold Change AI648846 Solute carrier family 6: 8.0 fold
  Fold Change AV026617 FBJ osteosarcoma oncogene: 23.8 fold
  Fold Change AV229143 Interferon activated gene (202A): 10.9 fold
  Fold Change AV318494 Myeloid cell leukemia sequence 1: 1.1 fold
  Fold Change BB193024 Interferon-induced transmembrane protein-2: 1.0 fold
  Fold Change BB241535 Suppressor of cytokine signaling 3: 1.1 fold
  Fold Change BB769628 Colony stimulating factor 2 receptor, beta 1: 6.9 fold
  Fold Change BB784999 Triggering receptor expressed on myeloid cells 1: 5.9 fold
  Fold Change BB831725 Suppressor of cytokine signaling 3: 6.5 fold
  Fold Change BC003839 Myeloid cell leukemia sequence 1 (Mcl1): 0.0 fold
  Fold Change BC010291 Interferon-inducible protein (Cd225): 0.0 fold
  Fold Change BC011092 Chemokine (C-C) receptor 1: −0.9 fold
  Fold Change BC011437 IL-1β: 0.6 fold
  Fold Change BC012653 Chemokine (C-X3-C) receptor 1: 11.6 fold
  Fold Change BC021916 EMAPI, cytokine activity: 0.3 fold
  Fold Change BC022943 Lymphocyte cytosolic protein 1: 0.2 fold
  Fold Change BE285634 Interleukin-1 receptor accessory protein: 0.2 fold
  Fold Change NM_008039 Receptor activity [formyl peptide receptor, related sequence 2] (Fpr-rs2): 0.6 fold
  Fold Change NM_008677 p40phox; intracellular signaling cascade neutrophil cytosolic factor 4 (Ncf4): 0.2 fold
  Fold Change NM_008879 Pls2, L-fimbrin, calcium ion binding lymphocyte cytosolic proteing 1 (Lep 1): 8.4 fold
  Fold Change NM_009883 Nuclear factor induced by IL-6 (NF-IL6): 0.3 fold
  Fold Change NM_011087 Paired-Ig-like receptor A1 (Piral): 0.9 fold
  Fold Change NM_011313 Cacy; calcium binding protein A6 (calcyclin)cyclin-dependent protein kinase: 2.3 fold
  Fold Change NM_011315 Saa-3 lipid transported activity acute phase response: 5.6 fold
  Fold Change NM_011355 PU.1, transcription factor complex cell growth and/or maintenance: 0.0 fold
  Fold Change NM_011940 Interferon-activatable protein (Ifi202): 9.4 fold
  Fold Change NM_011999 DCIR; C-type (calcium dependent, carbohydrate recognition domain) lectin: 8.0 fold
  Fold Change NM_030691 Integral to membrane immunoglobulin superfamily, member 6 (Igsf6): 3.5 fold
  Fold Change NM_030694 Interferon-induced transmembrane protein-3: 1.1 fold
  Fold Change U05264 Glycoprotein 49B (Gp49b): 1.0 fold
  Fold Change U72644 Leukocyte specific transcript 1: 0.9 fold
